Experimental data: patent publication US7833513B2, “Treatment of Alzheimer's Disease” (Rhode Island Hospital, priority 2004, dated 2010)

Columns and labels:
Type in all cases: in vivo, Long Evans rat
[1] = test system: phospho-GSK-3β, GSK-3β, phospho-Tau, Tau; assay: ic-STZ ± PPAR agonist: Western blot analysis of GSK-3β and Tau; details: hypothalamus
Description: (§1) On the same day, sub-sets of the ic-STZ group were given a single intra-peritoneal injection of vehicle (saline), or a PPAR-α (GW7647; 25 ug/Kg), PPAR-δ (L-165,041; 2 μg/Kg), or PPAR-γ (F-L-Leu; 20 μg/Kg) activator (CalBiochem, Carlsbad, Calif.). […] In addition, at 4 weeks of age, memory and learning were evaluated using a Morris Water Maze (R. W. Hickey, M. Akino, S. Strausbaugh, G. M. De Courten-Myers. Use of the Morris water maze and acoustic startle chamber to evaluate neurologic injury after asphyxial arrest in rats. Pediatr Res 39(1) (1996), 77-84). The procedures and use of rats in these experiments were approved by the Lifespan-Rhode Island Hospital IACUC committee.
Western Blot Analysis: Western blot analysis was used to assess the levels of Tau, phospho-Tau, GSK-3β, phospho-GSK-3β, and β-actin in temporal lobe tissue (E. J. Rivera, A. Goldin, N. Fulmer, R. Tavares, J. R. Wands, S. M. de la Monte, J. Alzheimers Dis 8(3) (2005), 247-68). Briefly, samples containing 40 μg protein were fractionated by sodium dodecyl sulfate, polyacrylamide gel electrophoresis (SDS-PAGE) (F. Ausubel, R. Brent, R. Kingston, D. Moore, J. Seidman, J. Smnith, et al. Current Protocols in Molecular Biology. (2000)). and transferred to PVDF membranes. Non-specific binding sites were adsorbed with SuperBlock-TBS (Pierce, Rockford, Ill.). Membranes were incubated over night at 4° C. with primary antibody (0.1-1 μg/ml-individually optimized) diluted in Tris-buffered saline (TBS; 50 mM Tris, 150 mM NaCl, pH 7.4) containing 0.5% bovine serum albumin, 0.05% Tween-20, and 0.025% NaN3 (TBST-BSA). Immunoreactivity was detected using horseradish peroxidase (HRP) conjugated IgG (Pierce, Rockford, Ill.) diluted to 1:50,000 in TBST+0.5% cassein, Western Lightning enhanced chemiluminescence reagents (Perkin Elmer Life Sciences Inc., Boston, Mass.), and digital imaging. Immunoreactivity was quantified using the Kodak Digital Science Imaging Station (NEN Life Sciences, Boston, Mass.).
PPAR Agonist Treatment Reduces ic-STZ-Mediated AD-Type Neurodegeneration: In AD, the neuronal cytoskeletal lesions that correlate with dementia, i.e. neurofibrillary tangles, dystrophic neuritis, and neuropil threads, contain insoluble fibrillar structures that are generated in part from hyper-phosphorylated Tau (K. Iqbal, C. Alonso Adel, S. Chen, M. O. Chohan, E. El-Akkad, C. X. Gong, et al. Tau pathology in Alzheimer disease and other tauopathies. Biochim Biophys Acta 1739(2-3) (2005), 198-210). […] J Alzheimers Dis 7(1) (2005), 63-80). […] Therefore, it was of interest to characterize the effects of PPAR agonists on GSK-3β activity and Tau phosphorylation in ic-STZ-treated brains. The levels of phospho-GSK-3β, GSK-3β, phospho-Tau, Tau, and β-actin ([…]) were examined in temporal lobe and hypothalamus homogenates by Western blot analysis. Immunoreactivity was detected and quantified by digital imaging, and the mean levels of protein expression and ratios of phospho-GSK-3β/GSK-3β and phospho-Tau/Tau measured in 4 replicate samples are depicted graphically (FIG. 31). Phospho-GSK-3β immunoreactivity was detected with antibodies directed against the Ser21/9 motif, corresponding to the inactivate form of the kinase.

insulin receptor = target: T1, insulin receptor (Rattus norvegicus, UniProt P15127); assay: ic-STZ ± PPAR agonist: equilibrium and saturation binding to insulin receptors in the brain; details: for BMAX, insulin receptor saturation binding in brains of treated rats: [125I]-insulin tracer, pooled brain membranes, 4 weeks after ic-STZ ± IP PPAR agonist; for mean insulin receptor binding: temporal lobe and cerebellum
T1 construct: from tissue; host or cells: rat brain (temporal lobe)
Description: as §1
(§2) Membrane protein extracted from fresh frozen brain tissue was used for competitive equilibrium and saturation binding assays. For total binding in equilibrium binding assays, duplicate samples were incubated in 100 μl reactions containing binding buffer (100 mM HEPES, pH 8.0, 118 mM NaCl, 1.2 mM MgSO4, 8.8 mM dextrose, 5 mM KCl, 1% bovine serum albumin) and 100 nCi/ml of [^125I] […] To measure total binding in saturation binding assays, samples from 8-12 brains per group were pooled in equal proportions, and duplicate samples were incubated in 100 μl reactions containing binding buffer and 0.0031 to 1 μCi/ml of [^125I] […] To detect non-specific binding in the equilibrium and saturation binding assays, duplicate reactions were incubated with the same concentrations of radiolabeled tracer plus 0.1 μM unlabeled (cold) competitive ligand. After 16 hours incubation at 4° C., bound radiolabeled tracer was precipitated with bovine gamma globulin and polyethylene glycol 8000. The precipitate (bound ligand) and supernatant (free ligand) fractions were counted in an LKB CompuGamma CS Gamma counter. Specific binding was calculated by subtracting fmols of non-specific binding, i.e. amount bound in the presence of excess cold ligand, from total fmols bound in the absence of unlabeled competitive ligand. GraphPad Prism 4 software (San Diego, Calif.) was used to calculate saturation binding (BMAX) and binding affinity (Kd) for each data set.

IGF-I receptor = target: T2, IGF-I receptor (Rattus norvegicus, UniProt P24062); assay: ic-STZ ± PPAR agonist: equilibrium and saturation binding to IGF-I receptors in the brain; details: for BMAX, IGF-1 receptor saturation binding in brains of treated rats: [125I]-IGF-I tracer, pooled brain membranes, 4 weeks after ic-STZ ± IP PPAR agonist; for IGF-I receptor binding: cerebellum
T2 construct: from tissue; host or cells: rat brain (temporal lobe)
Description: as §1, §2

learning and memory = assay: Morris Water Maze learning and memory test; details: for behavior, learning and memory during the training period: 4-week old rats; for mean latency period to arrive at the hidden platform relative to control: Trial Day 4 / final day of testing
Description: as §1
Morris Water Maze Behavioral Tests: A standard Morris Water Maze was used to measure learning (R. W. Hickey, M. Akino, S. Strausbaugh, G. M. De Courten-Myers. Use of the Morris water maze and acoustic startle chamber to evaluate neurologic injury after asphyxial arrest in rats. Pediatr Res 39(1) (1996), 77-84). On the first day of testing, the rats were oriented to the water maze and educated about the location of the platform. On the 3 subsequent days of testing, the platform was submerged just below the surface, and the rats were tested for their learning and memory of the platform location by measuring the latency period required to reach and recognize the platform. The rats were allowed 120 seconds to locate the platform, after which they were guided to it. After landing on the platform, the rats were allowed to orient themselves for 15 seconds prior to being rescued. The rats were tested three times each day, with 30 min. intervals between trials. The rats were placed in the same quadrant of the water maze for every trial, except for trials 2 and 3 on the final day testing, when the start locations were randomized to test mastery of platform memory.

T2 sequence (P24062 31-737 limits assumed): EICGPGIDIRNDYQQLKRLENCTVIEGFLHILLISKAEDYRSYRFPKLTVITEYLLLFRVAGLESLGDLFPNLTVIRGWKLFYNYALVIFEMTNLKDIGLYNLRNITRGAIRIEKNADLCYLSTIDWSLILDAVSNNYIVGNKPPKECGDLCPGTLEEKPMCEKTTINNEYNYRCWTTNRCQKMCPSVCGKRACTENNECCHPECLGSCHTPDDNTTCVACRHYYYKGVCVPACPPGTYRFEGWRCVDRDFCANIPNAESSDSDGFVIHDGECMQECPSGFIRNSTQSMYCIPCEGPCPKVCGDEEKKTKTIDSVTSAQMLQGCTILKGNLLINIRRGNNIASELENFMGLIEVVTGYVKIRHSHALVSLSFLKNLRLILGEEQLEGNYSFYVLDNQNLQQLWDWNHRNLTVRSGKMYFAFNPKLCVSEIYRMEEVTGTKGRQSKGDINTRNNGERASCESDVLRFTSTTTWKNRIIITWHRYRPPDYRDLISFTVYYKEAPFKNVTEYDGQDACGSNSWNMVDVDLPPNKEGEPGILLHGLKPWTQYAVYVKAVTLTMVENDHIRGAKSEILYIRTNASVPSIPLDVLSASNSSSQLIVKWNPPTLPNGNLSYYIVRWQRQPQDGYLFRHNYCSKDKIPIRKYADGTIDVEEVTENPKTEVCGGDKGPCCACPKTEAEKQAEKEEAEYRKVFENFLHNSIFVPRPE
T2 sequence (P24062 742-1370 limits assumed): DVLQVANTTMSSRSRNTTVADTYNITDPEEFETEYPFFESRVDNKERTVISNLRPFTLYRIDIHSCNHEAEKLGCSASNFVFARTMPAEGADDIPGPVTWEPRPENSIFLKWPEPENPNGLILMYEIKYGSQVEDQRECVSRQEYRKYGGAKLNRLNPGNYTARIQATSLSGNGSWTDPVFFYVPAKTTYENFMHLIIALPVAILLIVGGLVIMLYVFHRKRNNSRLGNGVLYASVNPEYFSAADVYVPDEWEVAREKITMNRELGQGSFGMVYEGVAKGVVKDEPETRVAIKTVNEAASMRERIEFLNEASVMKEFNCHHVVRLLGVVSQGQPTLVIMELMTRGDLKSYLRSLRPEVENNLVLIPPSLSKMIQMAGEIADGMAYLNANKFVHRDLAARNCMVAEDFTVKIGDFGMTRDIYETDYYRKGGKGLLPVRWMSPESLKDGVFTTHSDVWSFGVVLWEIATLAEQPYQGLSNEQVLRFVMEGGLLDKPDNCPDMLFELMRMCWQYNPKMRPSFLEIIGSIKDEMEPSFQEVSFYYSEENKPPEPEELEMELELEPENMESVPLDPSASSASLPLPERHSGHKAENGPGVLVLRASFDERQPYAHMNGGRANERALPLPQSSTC
T1 sequence (P15127 27-759 limits assumed): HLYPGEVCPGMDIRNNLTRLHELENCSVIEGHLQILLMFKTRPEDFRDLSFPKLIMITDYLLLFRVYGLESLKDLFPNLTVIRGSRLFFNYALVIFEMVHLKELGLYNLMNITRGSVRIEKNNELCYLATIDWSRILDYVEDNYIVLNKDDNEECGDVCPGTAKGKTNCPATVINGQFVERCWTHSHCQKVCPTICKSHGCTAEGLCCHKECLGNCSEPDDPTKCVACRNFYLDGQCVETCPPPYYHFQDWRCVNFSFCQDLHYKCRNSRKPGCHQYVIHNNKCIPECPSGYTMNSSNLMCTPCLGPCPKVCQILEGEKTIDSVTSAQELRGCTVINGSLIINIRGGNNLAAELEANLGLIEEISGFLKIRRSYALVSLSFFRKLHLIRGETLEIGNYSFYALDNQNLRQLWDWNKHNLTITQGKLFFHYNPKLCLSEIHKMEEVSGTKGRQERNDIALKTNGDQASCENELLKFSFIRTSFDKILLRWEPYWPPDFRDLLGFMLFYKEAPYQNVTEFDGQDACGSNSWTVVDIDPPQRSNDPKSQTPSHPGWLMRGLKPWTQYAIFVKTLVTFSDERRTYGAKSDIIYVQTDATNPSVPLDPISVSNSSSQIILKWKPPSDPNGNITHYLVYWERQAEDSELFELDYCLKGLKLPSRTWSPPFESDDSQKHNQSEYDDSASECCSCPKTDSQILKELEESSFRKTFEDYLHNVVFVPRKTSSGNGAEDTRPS
T1 sequence (P15127 764-1383 limits assumed): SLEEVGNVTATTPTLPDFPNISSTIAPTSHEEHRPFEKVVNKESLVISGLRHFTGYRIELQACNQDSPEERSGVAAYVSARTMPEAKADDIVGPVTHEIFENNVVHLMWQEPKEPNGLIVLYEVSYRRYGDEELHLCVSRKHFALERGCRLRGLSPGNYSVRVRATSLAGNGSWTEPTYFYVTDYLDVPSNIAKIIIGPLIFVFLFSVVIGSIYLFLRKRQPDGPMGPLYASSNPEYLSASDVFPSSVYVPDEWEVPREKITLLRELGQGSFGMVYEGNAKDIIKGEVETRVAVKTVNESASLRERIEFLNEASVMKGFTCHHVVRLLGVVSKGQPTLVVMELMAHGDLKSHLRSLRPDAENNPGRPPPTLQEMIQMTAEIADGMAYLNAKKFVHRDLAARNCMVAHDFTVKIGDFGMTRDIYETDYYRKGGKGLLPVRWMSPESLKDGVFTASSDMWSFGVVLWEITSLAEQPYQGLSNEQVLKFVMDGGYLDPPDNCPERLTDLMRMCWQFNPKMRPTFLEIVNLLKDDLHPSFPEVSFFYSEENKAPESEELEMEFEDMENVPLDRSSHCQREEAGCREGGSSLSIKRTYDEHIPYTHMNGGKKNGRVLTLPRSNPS

| Compound | phospho-GSK-3β level [1] | phospho-Tau level relative to control [1] | total Tau protein level [1] | BMAX, insulin receptor saturation binding in brains of treated rats (insulin receptor) | mean insulin receptor binding (insulin receptor) | BMAX, IGF-1 receptor saturation binding in brains of treated rats (IGF-I receptor) | behavior, learning and memory during the training period (learning and memory) | mean latency period to arrive at the hidden platform relative to control (learning and memory) | IGF-I receptor binding (IGF-I receptor) | BMAX for IGF-I receptor (in words) vs ic-STZ group (IGF-I receptor; rat, in vivo) | insulin receptor binding (insulin receptor; hypothalamus) | steady-state insulin receptor binding (insulin receptor; temporal lobe, hypothalamus, cerebellum) | binding to IGF-I receptors (IGF-I receptor; hypothalamus or cerebellum) | binding to IGF-I receptors (IGF-I receptor; temporal lobe) | mean latency period vs control (learning and memory; first 3 days of testing) | mean latency vs control (learning and memory; fourth day) | learning and memory in Morris Water Maze (learning and memory; rats surviving 4 weeks or longer, preliminary studies) |
| --- | --- | --- | --- | --- | --- | --- | --- | --- | --- | --- | --- | --- | --- | --- | --- | --- | --- |
| CC(C)(Sc1ccc(CCN(CCCCC2CCCCC2)C(=O)NC2CCCCC2)cc1)C(=O)O [PPAR-α agonist, GW7647] | significantly increased | significantly higher | slightly higher levels of Tau relative to all other groups | 1.172 fmol/mg protein | significantly increased | 0.6361 fmol/mg protein | delayed learning and impaired memory | significantly higher | – | – | – | – | – | – | – | – | – |
| CC(C)C[C@H](NC(=O)OCC1c2ccccc2-c2ccccc21)C(=O)O [PPAR-γ agonist, F-L-Leu] | significantly reduced | moderately reduced | – | 1.127 fmol/mg protein | significantly increased | 3.123 fmol/mg protein | delayed learning and impaired memory | significantly higher | significantly increased | increased | – | – | – | – | – | – | – |
| CCCc1c(OCCCOc2ccc(OCC(=O)O)cc2)ccc(C(C)=O)c1O [PPAR-δ agonist, L-165,041] | significantly increased | moderately reduced | – | 2.186 fmol/mg protein | significantly increased | 0.7399 fmol/mg protein | no detectable abnormalities in behavior, learning, or memory | no significant difference | significantly increased | – | significantly increased | – | – | – | – | – | – |
| CN(N=O)C(=O)NC1C(O)OC(CO)C(O)C1O (stereo not shown) [STZ] | – | – | – | 0.8421 fmol/mg protein | – | 1.204 fmol/mg protein | – | – | – | – | – | significantly reduced | not in the hypothalamus or cerebellum | significantly reduced | approximately twice as long as control | no significant differences | striking impairments in learning and memory |
